Experiments:
[1] = molecular target: Human BTK enzyme, wild-type (Homo sapiens (Human), UniProt Q06187); experiment: BTK Screening: Btk kinase activity, electrophoretic mobility shift assay (MSA); assay type: biochemical; settings: 0.5 nM BTK enzyme, 50 μM ATP, 15 minutes pre-incubation, 3 hours at 25° C.
Procedure: Btk kinase activity was measured in vitro using an electrophoretic mobility shift assay (MSA). The ability of Btk to phosphorylate a fluorescent peptide substrate (FAM-GEEPLYWSFPAKKK-NH2) was measured. The kinase reactions were assembled in a total volume of 25 μL per well in 384 well plates. The following was added to each well: compound buffer (or control); enzyme buffer; and substrate buffer, as further described below.
Specifically the following was added: (1) compound buffer or control: 5μL of 5× compound buffer [(5× compound buffer comprised of: 1× Master Buffer, X μM test compound in 5% dimethyl sulfoxide; (2× Master Buffer comprised of 200 mM HEPES, pH7.5, 0.2% BSA, and 0.02% Triton X-100)]; and (2) enzyme buffer: 10 μL of 2.5× enzyme buffer (1× Master Buffer, 12.5 mM MgCl2, 2.5 mM DTT, 25 μM sodium orthovanadate, 25 μM beta-glycerophosphate, and 1.25 nM BTK enzyme). Human BTK enzyme Nanosyn-293HEK, wild-type, available from Nanosyn, Santa Clara, CA). Enzyme and compound were pre-incubated for 15 minutes. Additionally, the following was added: (3) substrate buffer: 10 μL of 2.5× substrate buffer (1× Master Buffer, […], and 2.5 μM of the peptide substrate FAM). Each plate was incubated at 25° C. for 3 hours. The reaction was terminated by adding to each well: 45 μL of 1.55× stop buffer (1× Master Buffer and 31 mM EDTA). The final reaction mixture was as follows: 100 mM HEPES, pH7.5; 0.1% BSA; 0.01% Triton X-100; 1 mM DTT; 5 mM MgCl2; 10 μM sodium orthovanadate; 10 μM beta-glycerophosphate; 50 μM ATP; 1% dimethyl sulfoxide (from compound); 1μM fluorescent peptide substrate and 0.5 nM BTK- enzyme. The terminated reactions were analyzed using a 12 channel LABCHIP® 3000 microfluidic detection instrument (available from Caliper Life Sciences, Waltham, MA). […] As substrate and product peptides were separated, two peaks of fluorescence were observed. Change in the relative fluorescence intensity of the substrate and product peaks was the parameter measured, reflecting enzyme activity. In the presence of an active compound, the ratio between product and substrate was altered. The signal of the product decreased, while the signal of the substrate increased. Capillary electrophoregrams (RDA acquisition files) were analyzed using HTS Well Analyzer software (available from Caliper Life Sciences, Waltham, MA).
Activity in each sample was determined as the product to sum ratio (PSR): P/(S+P), where P was the peak height of the product peptide and S was the peak height of the substrate peptide. For each compound, enzyme activity was measured at various concentrations (12 concentrations of compound spaced by 3× dilution intervals). Negative control samples (0% inhibition in the absence of an active compound) and positive control samples (100% inhibition, in the presence of 20 mM EDTA) were assembled in replicates of four and were used to calculate % inhibition values for each active compound at each concentration. Percent inhibition (Pinh) was determined using following equation: Pinh=(PSR0%−PSRinh)/(PSR0%−PSR100%)*100, where PSRinh was the product sum ratio in the presence of inhibitor, PSR0% was the average product sum ratio in the absence of active compound and PSR100% was the average product sum ratio in 100%-inhibition control samples.
The IC50 values of active compounds were determined by 4 parameter sigmoidal dose response model fitting of the inhibition curves (Pinh versus inhibitor concentration) using XLfit® 4 software (IDBS, Boston, MA). The IC50 values are reported in Table 2 in the BTK IC50 (nM) column.

[2] = molecular target: His-tagged Cereblon/DDB1 complex (Homo sapiens (Human), UniProt Q96SW2); experiment: Cereblon Binding Assay (AlphaLISA Human Cereblon Binding Kit, competition); settings: 10 μM top dose, biotin-labeled ligand competition; read-out: CRBN IC50
Procedure: Cereblon binding was measured in vitro using an AlphaLISA® Human Cereblon Binding Kit (PerkinElmer, Waltham, MA) according to the manufacturer's protocol (“Alpha” refers to Amplified Luminescent Proximity Homogeneous Assay). In this assay, donor beads and acceptor beads come into proximity through ligand binding to CRBN protein. Excitation of the donor beads provokes the release of singlet oxygen that triggers a cascade of energy transfer reactions to the acceptor beads, resulting in a sharp peak in light emission at 615 nm.
Specifically, nickel chelate acceptor beads (PerkinElmer AL108M) were used to capture a 6XHIS-tagged CRBN protein, and streptavidin-coated donor beads (PerkinElmer 6760002) were used to capture 50 nM biotinylated ligand. Each well included the following: sample or control; HIS-tagged CRBN protein; biotinylated ligand; nickel chelate acceptor beads; and streptavidin donor beads.
Competition Assay: Test compounds in 100% dimethyl sulfoxide were plated onto white, low volume 384 well plates (PerkinElmer Proxiplate 384 plus # 6008289) using an Labcyte Echo acoustic dispenser, in an 11-point dose curve and 3-fold dilution scheme. […] Plates were incubated for 30 minutes at room temperature.
Detection: 10 μL detection reagents were added in low light conditions containing nickel chelate acceptor beads and streptavidin donor beads (Perkin Elmer 6760002), resulting in a final concentration 20 ng/ml. Plates were incubated 1 hour and read on a PerkinElmerTM Envision™ plate reader (680 nm excitation and […] settings). The IC50 of each compound was determined by calculating percent inhibition from no drug and no protein controls, and the Ki of each compound was calculated using the Cheng-Prusoff transformation. From the IC50 values were determined. The IC50 values are reported in Table 2 in the CRBN IC50 (nM) column.

- IC50 [1]: 0.141 nM
- IC50 [2]: ≥ 10000 nM
Structure (SMILES): Cc1cc(-c2cc(Nc3ccc(N4CCN(CCc5ccc(N6CCC(=O)NC6=O)c(F)c5)C[C@@H]4C)cn3)ncn2)ccc1[C@@H](C)NC(=O)c1nc(C(C)(C)C)no1 [Example 4, 3-tert-butyl-N-[(1R)-1-{4-[6-({5-[(2S)-4-{2-[4-(2,4-dioxo-1,3-diazinan-1-yl)-3-fluorophenyl]ethyl}-2-methylpiperazin-1-yl]pyridin-2-yl}amino)pyrimidin-4-yl]-2-methylphenyl}ethyl]-1,2,4-oxadiazole-5-carboxamide]
